Measured values: patent US7247734B2 (Vernalis (Cambridge) Limited, priority 2001, dated 2007)
Where two headings read alike, the source gives them in different places.

Target: T1, yeast HSP90 (Saccharomyces cerevisiae, UniProt P02829)
T1 construct: made in house; host or cells: E. coli
Test: Malachite green HSP90 ATPase assay
Assay type: biochemical
Text: Two methods have been developed to measure the intrinsic ATPase activity of HSP90, using yeast HSP90 as a model system. The first method utilises a regenerating coupled enzyme assay. The second assay, based on the use of malachite green for the measurement of inorganic phosphate, was designed for high throughput screening (HTS) to identify novel HSP90 inhibitor drug candidates.
Colorimetric assays for the determination of phosphate, based on the formation of a phosphomolybdate complex, can be carried out in a few steps with inexpensive reagents and are well suited to the automation required for high throughput screening (see, e.g., Cogan et al., 1999). Enzymes that release inorganic phosphate are assayed using the reaction of the cationic dye, malachite green, with the a complex formed by a reaction of the inorganic phosphate with molybdate to generate a blue-green colour with an absorbance maximum at 610 nm (see, e.g., Baykov et al., 1988; Harder et al., 1994; Maehama et al., 2000). The method has been used in both high throughput (see, e.g., Rumsfeld et al., 2000) and ultra-high throughput screening formats (see, e.g., Layery et al., 2001) for a variety of non-HSP90 ATPases. However, this method is complicated by the non-enzymatic hydrolysis of ATP in the presence of acidic malachite green reagent, causing an increase in colour (see, e.g., Chan et al., 1986; Henkel et al., 1988). This process is mediated by molybdate and can be overcome by the addition of sodium citrate immediately after the reagent (see, e.g., Lanzetta et al., 1979; Schirmer et al., 1998; Baginski et al., 1975). This modification has been adapted to the 96-well microtitre plate assay previously described for other ATPases (see, e.g., Lanzetta et al., 1979) to produce the following protocol for HSP90 ATPase, which is suitable for high throughput screening.
Chemicals are of the highest purity commercially available and all aqueous solutions are made up in AR water. Because of the need to minimise contamination with inorganic phosphate, precautions should be taken with solutions and apparatus used in the assays. Glassware and pH meters are rinsed with double distilled or deionised water before use and, wherever possible, plastic ware should be used. Gloves are worn for all procedures. • (1) Immulon 96-well (Thermo Labsystems, Basingstoke, UK) or Cliniplate 384-well flat-bottomed polystyrene multiwell plates (Thermo Labsystems). • (2) Assay buffer of (a) 100 mM Tris-HCl, pH 7.4, (b) 20 mM KCl, (c) 6 mM MgCl2. Stored at 4° C. • (3) 0.0812% (w/v) malachite green (M 9636, Sigma Aldrich Ltd., Poole, UK). Stored at room temperature. • (4) 2.32% (w/v) polyvinyl alcohol USP (P 1097, Sigma Aldrich Ltd, Poole, UK) in boiling water (see Comment 1), allowed to cool, and stored at room temperature. • (5) 5.72% (w/v) ammonium molybdate in 6 M hydrochloric acid. Stored at room temperature. • (6) 34% (w/v) sodium citrate. Stored at room temperature. • (7) ATP, disodium salt, special quality (519979, Boehringer Mannheim, Lewes, UK). Stored at 4° C. • (8) E. coli expressed yeast HSP90 protein, purified >95% (see, e.g., Panaretou et al., 1998) and stored at −80° C. as 10 μl aliquots containing 0.5 mg of protein. Method
The following protocol was used: • (1) On the day of use, prepare the malachite green reagent from the stock solutions. Mix (a) 2 parts of malachite green, (b) 1 part of polyvinyl alcohol, (c) 1 part of ammonium molybdate, and (d) 2 parts of water. Initially, the reagent is a dark brown colour, but after standing at room temperature for about 2 h, this becomes a golden yellow colour and is ready for use. • (2) For the high throughput screening assays, the test compounds are dissolved at 200 μM in 2.0% DMSO and contained in daughter plates derived from the chemical libraries. Transfer 5 μl of each sample from the daughter plate to each well of the assay plate using automated equipment (see Comment 3). This represents a final concentration in the well of 40 μM.

[1] = activity class, read-out: Hsp90 IC50
[2] = activity range, ATPase assay, read-out: ATPase IC50
[3] = ATPase IC50, activity range, ATPase assay

T1 sequence (P02829 whole entry, looked up): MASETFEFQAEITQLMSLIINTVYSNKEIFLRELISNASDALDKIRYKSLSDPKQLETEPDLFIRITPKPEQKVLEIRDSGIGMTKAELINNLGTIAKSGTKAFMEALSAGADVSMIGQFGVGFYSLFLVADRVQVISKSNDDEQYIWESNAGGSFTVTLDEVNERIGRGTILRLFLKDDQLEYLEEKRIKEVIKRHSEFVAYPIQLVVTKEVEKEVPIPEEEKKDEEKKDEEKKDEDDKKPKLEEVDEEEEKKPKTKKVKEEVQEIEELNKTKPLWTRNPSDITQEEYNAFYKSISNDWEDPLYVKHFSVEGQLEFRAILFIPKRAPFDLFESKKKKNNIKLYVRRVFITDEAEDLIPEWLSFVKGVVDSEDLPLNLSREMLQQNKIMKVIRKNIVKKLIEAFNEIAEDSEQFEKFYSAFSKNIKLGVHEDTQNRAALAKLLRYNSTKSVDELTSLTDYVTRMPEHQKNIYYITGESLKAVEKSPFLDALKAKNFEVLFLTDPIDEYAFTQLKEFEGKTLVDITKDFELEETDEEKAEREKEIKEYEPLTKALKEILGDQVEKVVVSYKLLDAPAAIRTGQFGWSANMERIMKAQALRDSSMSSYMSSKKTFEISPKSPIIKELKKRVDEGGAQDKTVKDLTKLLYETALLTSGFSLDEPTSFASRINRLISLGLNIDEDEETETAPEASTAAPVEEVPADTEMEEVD

SMILES	IC50 [1]	other results
CC(=O)Nc1ccc(-c2n[nH]c(C)c2-c2ccc3c(c2)OCCO3)cc1 [Example 112]	> 10 µM	
CC(=O)Nc1cccc(-c2n[nH]c(C)c2-c2ccc3c(c2)OCCO3)c1 [Example 113]	> 10 µM	
CCOC(=O)c1ccc(-c2n[nH]c(C)c2-c2ccc3c(c2)OCCO3)cc1 [Example 114]	> 10 µM	
Cc1[nH]nc(-c2ccc(C(=O)O)cc2)c1-c1ccc2c(c1)OCCO2 [Example 115]	> 10 µM	
CCOC(=O)c1cccc(-c2n[nH]c(C)c2-c2ccc3c(c2)OCCO3)c1 [Example 116]	> 10 µM	
Cc1[nH]nc(-c2ccc(C#N)cc2)c1-c1ccc2c(c1)OCCO2 [Example 117]	> 10 µM	
Cc1[nH]nc(-c2cccc(C#N)c2)c1-c1ccc2c(c1)OCCO2 [Example 118]	> 10 µM	
CCc1cc(-c2n[nH]c(C)c2-c2nc3ccccc3s2)c(O)cc1OCC(=O)NN [Example 119]	> 10 µM	
CCc1cc(-c2n[nH]cc2-c2ccc3c(c2)OCO3)c(O)cc1OC [Example 120]	> 10 µM	
Cc1[nH]nc(-c2ccc3c(c2O)OCO3)c1-c1ccc2c(c1)OCCO2 [Example 121]	> 10 µM	
COc1ccc(-c2n[nH]cc2-c2ccc3c(c2)OCCO3)c(O)c1 [Example 122]	> 10 µM	
Cc1[nH]nc(-c2ccc(OCC(=O)O)cc2O)c1-c1ccc(F)cc1 [Example 123]	> 10 µM	
CCc1cc(-c2n[nH]cc2-c2nc(C)cs2)c(O)cc1OCc1cccc(C)c1 [Example 124]	> 10 µM	
O=C(O)COc1ccc(-c2n[nH]cc2-c2ccc3c(c2)OCCO3)c(O)c1 [Example 125]	> 10 µM	
CCCc1cc(-c2n[nH]cc2-c2ccccc2)c(O)cc1OC [Example 126]	> 10 µM	
Cc1[nH]nc(-c2cc(Cl)c(O)cc2O)c1-c1ccccc1 [Example 127]	> 10 µM	
CCc1cc(-c2n[nH]cc2-c2ccccc2)c(O)cc1OC [Example 128]	> 10 µM	
Cc1nc(-c2c[nH]nc2-c2ccc(O)cc2O)cs1 [Example 129]	> 10 µM	
CCOc1cc(O)c(-c2n[nH]cc2-c2nc(C)cs2)cc1CC [Example 130]	> 10 µM	
CCc1cc(-c2n[nH]cc2-c2nc(C)cs2)c(O)cc1OC [Example 131]	> 10 µM	
COc1ccc(-c2c(-c3ccc(O)c(C)c3O)n[nH]c2C)cc1 [Example 132]	> 10 µM	
Cc1ccc(-n2cc(-c3c[nH]nc3-c3ccc(O)cc3O)cn2)cc1 [Example 136]	> 10 µM	
Cc1[nH]nc(-c2ccc(O)cc2O)c1-c1cnn(-c2ccccc2)c1 [Example 137]	> 10 µM	

SMILES	IC50 [1]	other results
Cc1[nH]nc(-c2cc(Cl)c(O)c(Cl)c2O)c1-c1ccccc1 [Example 138]	> 10 µM	
CCCc1cc(-c2n[nH]cc2-c2ccc3c(c2)OCO3)c(O)cc1O [Example 140]	> 10 µM	
CCc1cc(-c2n[nH]cc2-c2ccc(OC)cc2)c(O)cc1O [Example 141]	10 to 100 µM	
Oc1ccc(-c2n[nH]c(C(F)(F)F)c2-c2ccc3c(c2)OCCO3)c(O)c1 [Example 142]	> 10 µM	
Cc1ncc(-c2c(-c3ccc(O)cc3O)n[nH]c2C(F)(F)F)s1 [Example 143]	> 10 µM	
Oc1ccc(-c2n[nH]c(C(F)(F)F)c2-c2ccccc2Cl)c(O)c1 [Example 144]	> 10 µM	
CCc1cc(-c2n[nH]cc2-c2cnn(-c3ccccc3)c2)c(O)cc1O [Example 145]	> 10 µM	
Cc1[nH]nc(-c2ccc(C(N)=O)cc2)c1-c1ccc2c(c1)OCCO2 [Example 158]		IC50 [2]: > 50 µM
Cc1[nH]nc(-c2ccc(C(=O)NCC3CCCO3)cc2)c1-c1ccc2c(c1)OCCO2 (centres unmarked) [Example 159]		IC50 [2]: > 50 µM
Cc1[nH]nc(-c2ccc(C(=O)Nc3cccnc3)cc2)c1-c1ccc2c(c1)OCCO2 [Example 160]		IC50 [2]: > 50 µM
Cn1cc(-c2ccc(Br)cc2)c(-c2cc(Cl)c(O)cc2O)n1 [Example 161, 4-[4-(4-Bromo-phenyl)-1-methyl-1H-pyrazol-3-yl]-6-chloro-benzene-1,3-diol]		IC50 [2]: > 50 µM
CCc1cc(-c2nn(C)cc2-c2ccc(OC)c(OC)c2)c(O)cc1O [Example 162, 4-[4-(3,4-Dimethoxy-phenyl)-1-methyl-1H-pyrazol-3-yl]-6-ethyl-benzene-1,3-diol]		IC50 [2]: > 50 µM
Cc1c(-c2ccc(Br)cc2)c(-c2cc(Cl)c(O)cc2O)nn1C [Example 163]		IC50 [2]: > 50 µM
Cc1c(-c2ccccc2)c(-c2cc(Cl)c(O)cc2O)nn1C [Example 164, 4-Chloro-6-(1,5-dimethyl-4-phenyl-1H-pyrazol-3-yl)-benzene-1,3-diol]		IC50 [2]: > 50 µM
COc1ccc(-c2cn(C)nc2-c2cc(Cl)c(O)cc2O)cc1OC [Example 165]		IC50 [2]: > 50 µM
OCCn1cc(-c2ccc(Br)cc2)c(-c2cc(Cl)c(O)cc2O)n1 [Example 166, 4-[4-(4-Bromo-phenyl)-1-(2-hydroxy-ethyl)-1H-pyrazol-3-yl]-6-chloro-benzene-1,3-diol]		IC50 [2]: > 50 µM
COc1ccc(-c2c(-c3cc(Cl)c(O)cc3O)n[nH]c2C(=O)O)cc1 [Example 167, 5-(5-Chloro-2,4-dihydroxy-phenyl)-4-(4-methoxy-phenyl)-2H-pyrazole-3-carboxylic acid]		IC50 [3]: < 50 µM
CNC(=O)c1[nH]nc(-c2cc(Cl)c(O)cc2O)c1-c1ccc(OC)cc1 [Example 168, 5-(5-Chloro-2,4-dihydroxy-phenyl)-4-(4-methoxy-phenyl)-2H-pyrazole-3-carboxylic acid methylamide]		IC50 [3]: < 50 µM
COc1ccc(-c2c(-c3cc(Cl)c(O)cc3O)n[nH]c2C(=O)NC(C)C)cc1 [Example 170, 5-(5-Chloro-2,4-dihydroxy-phenyl)-4-(4-methoxy-phenyl)-2H-pyrazole-3-carboxylic acid isopropylamide]		IC50 [3]: < 50 µM
COc1ccc(-c2c(-c3cc(Cl)c(O)cc3O)n[nH]c2C(=O)NCc2ccccc2)cc1 [Example 171, 5-(5-Chloro-2,4-dihydroxy-phenyl)-4-(4-methoxy-phenyl)-2H-pyrazole-3-carboxylic acid benzylamide]		IC50 [2]: < 50 µM
COc1ccc(-c2c(-c3cc(Cl)c(O)cc3O)n[nH]c2C(N)=O)cc1 [Example 172, 5-(5-Chloro-2,4-dihydroxy-phenyl)-4-(4-methoxy-phenyl)-2H-pyrazole-3-carboxylic acid amide]		IC50 [3]: < 50 µM
Oc1cc(O)c(-c2n[nH]cc2-c2ccc3c(c2)CCO3)cc1Cl [Example 173]		IC50 [2]: < 50 µM
Oc1cc(O)c(-c2n[nH]cc2-c2ccsc2)cc1Cl [Example 174]		IC50 [2]: < 50 µM

Further lines, with some results ahead:

IC50 [1]	SMILES	other results
> 10 µM	CCc1cc(-c2n[nH]c(C)c2-c2nc3ccccc3s2)c(O)cc1O [Example 146]	
> 10 µM	COc1ccc(-c2c(-c3cc(Cl)c(F)cc3O)n[nH]c2C)cc1 [Example 147]	
> 10 µM	Cc1[nH]nc(-c2cccc(Cl)c2Cl)c1-c1ccc2c(c1)OCCO2 [Example 150]	
> 10 µM	COc1ccc(-c2c(C)n[nH]c2-c2cnc(N)nc2)cc1 [Example 151, 5-[4-(4-Methoxy-phenyl)-5-methyl-2H-pyrazol-3-yl]-pyrimidin-2-ylamine]	
> 10 µM	COc1ccc(-c2c(C)n[nH]c2-c2cc(C)nc(N)n2)cc1 [Example 152, 4-[4-(4-Methoxy-phenyl)-5-methyl-2H-pyrazol-3-yl]-6-methyl-pyrimidin-2-ylamine]	
< 10 µM	N#CCCCCOc1cccc(-c2c[nH]nc2-c2cc(Cl)c(O)cc2O)c1 [Example 155]	
< 10 µM	COc1ccc(-c2ccc(-c3c[nH]nc3-c3cc(Cl)c(O)cc3O)cc2)cc1OC [Example 157]	
